In PMC9405973, “Altered Conformational Landscape upon Sensing Guanine Nucleotides in a Disease Mutant of Elongation Factor-like 1 (EFL1) GTPase” (Biomolecules, 2022):

Target: T1, Efl1 R1086Q in complex with Sdo1 and 60S subunits (Saccharomyces cerevisiae, UniProt P53893, R1086Q)
T1 construct: made in house; host or cells: Efl1: Saccharomyces cerevisiae; Sdo1: Escherichia coli C41; 60S subunits purified from S. cerevisiae strain JD1370
T1 sequence (P53893 1-1110 R1086Q): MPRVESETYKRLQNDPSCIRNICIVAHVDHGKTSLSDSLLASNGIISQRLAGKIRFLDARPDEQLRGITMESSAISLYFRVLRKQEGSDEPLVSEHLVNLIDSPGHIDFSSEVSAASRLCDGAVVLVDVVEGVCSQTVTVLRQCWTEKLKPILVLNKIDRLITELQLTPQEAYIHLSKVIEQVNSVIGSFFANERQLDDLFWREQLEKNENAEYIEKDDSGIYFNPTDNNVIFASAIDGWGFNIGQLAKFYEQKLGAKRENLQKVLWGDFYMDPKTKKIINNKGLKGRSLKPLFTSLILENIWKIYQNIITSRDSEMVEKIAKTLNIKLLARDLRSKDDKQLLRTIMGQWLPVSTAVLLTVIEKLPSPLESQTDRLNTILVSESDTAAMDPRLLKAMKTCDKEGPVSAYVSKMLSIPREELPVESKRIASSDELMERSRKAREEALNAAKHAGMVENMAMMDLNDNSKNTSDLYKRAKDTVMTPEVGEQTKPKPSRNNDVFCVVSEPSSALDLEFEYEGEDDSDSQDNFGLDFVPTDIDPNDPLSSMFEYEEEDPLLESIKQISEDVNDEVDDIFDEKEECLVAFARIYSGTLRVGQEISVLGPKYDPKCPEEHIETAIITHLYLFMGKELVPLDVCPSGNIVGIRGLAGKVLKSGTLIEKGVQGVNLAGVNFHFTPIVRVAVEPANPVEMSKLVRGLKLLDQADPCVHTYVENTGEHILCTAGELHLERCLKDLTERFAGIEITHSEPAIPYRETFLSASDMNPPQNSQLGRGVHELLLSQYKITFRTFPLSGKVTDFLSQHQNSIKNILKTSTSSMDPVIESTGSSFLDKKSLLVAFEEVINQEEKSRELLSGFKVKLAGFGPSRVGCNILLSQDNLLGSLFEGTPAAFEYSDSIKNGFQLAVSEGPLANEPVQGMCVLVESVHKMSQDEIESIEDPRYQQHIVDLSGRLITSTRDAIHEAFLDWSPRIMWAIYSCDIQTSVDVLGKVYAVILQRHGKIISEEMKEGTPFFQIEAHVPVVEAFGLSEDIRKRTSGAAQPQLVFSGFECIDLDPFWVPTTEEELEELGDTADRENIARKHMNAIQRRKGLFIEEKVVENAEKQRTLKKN
T1 sequence (Q07953 1-250 partner): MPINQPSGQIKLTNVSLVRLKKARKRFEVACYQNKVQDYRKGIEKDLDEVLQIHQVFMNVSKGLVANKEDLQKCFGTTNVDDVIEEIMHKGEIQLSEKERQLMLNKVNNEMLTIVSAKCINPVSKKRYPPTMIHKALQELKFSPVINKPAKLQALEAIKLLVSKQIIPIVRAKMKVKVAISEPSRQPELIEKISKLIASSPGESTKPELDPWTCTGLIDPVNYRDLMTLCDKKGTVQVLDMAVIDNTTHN
Experiment: Steady state fluorescence binding of mant-GTP to Efl1 R1086Q in complex with Sdo1 and 60S subunits
Settings: 25 °C, one-binding-site model; read-out: dissociation constant (Kd)
Experimental: We measured the binding of different Efl1 constructs present in complex with Sdo1 and 60S subunits to the fluorescence GTP analogue, mant-GTP, by following the increase in the fluorescence signal after excitation at 355 nm. Fluorescence intensities were plotted as a function of increasing nucleotide concentrations, and the dissociation constant (Kd) was calculated by fitting the data to a one-binding-site model (Supplementary Figure S1B).
Hydrolysis of GTP was measured using the Enzchek Phosphate Assay kit (Molecular Probes) as described by Webb. Standard reactions consisted of 100 µL containing 6 µM of Efl1 R1086Q and Efl1 L910K, 0.3 mM MESG, 1.0 U purine nucleoside phosphorylase (PNP) and the indicated amounts of GTP. […]
Reactions were initiated and the GTPase was added after 3 min. Time courses were followed by recording the change in absorbance at 360 nm in a Cary 60 UV -Vis spectrophotometer (Agilent Technologies). Background absorbance was recorded prior to the addition of the GTPase and subtracted from the sample signals. The slope of the measured time courses corresponded to the GTP hydrolysis rate. […] Data were analysed by nonlinear regression to the M ichaelis-Menten equation with the program Origin Version 5.0 (OriginLab, Co., Northampton, MA). […]
Steady state fluorescence measurements […]
Maximum emission at 440 nm was replotted as a function of nucleotide concentration and analysed

CNc1ccccc1C(=O)O[C@H]1[C@@H](O)[C@H](n2cnc3c(=O)[nH]c(N)nc32)O[C@@H]1COP(=O)(O)OP(=O)(O)OP(=O)(O)O [mant-GTP]
Kd: 32 µM
